Data from PMC4579598 (2015).

Assays:
[1] = tested on: myc2345 (DNA, G4) TGAGGGTGGGGAGGGTGGGGAA; assay: displacement of DAOTA-M2 followed by fluorescence lifetime (FLIM); conditions: 100 mM K+; 10 mM lithium cacodylate pH 7.3; DAOTA-M2 displaced, duplex DNA present
[2] = tested on: ss17 (DNA, single strand) CCAGTTCGTAGTAACCC; assay: fluorescence emission titration; conditions: 100 mM K+; 10 mM lithium cacodylate pH 7.3, 2 μM compound; per five-base motif; log Ka 5.7-6.1 over all DNAs
[3] = tested on: ds17 (DNA, duplex) CCAGTTCGTAGTAACCC/GGGTTACTACGAACTGG; assay: fluorescence emission titration; conditions: 100 mM K+; 10 mM lithium cacodylate pH 7.3, 2 μM compound; per binding motif; log Ka 5.7-6.1 over all DNAs
[4] = tested on: TBA (DNA, G4) GGTTGGTGTGGTTGG; assay: fluorescence emission titration; conditions: 100 mM K+; 10 mM lithium cacodylate pH 7.3, 2 μM compound; log Ka 5.7-6.1 over all DNAs
[5] = tested on: myc2345 (DNA, G4) TGAGGGTGGGGAGGGTGGGGAA; assay: fluorescence emission titration; conditions: 100 mM K+; 10 mM lithium cacodylate pH 7.3, 2 μM compound; per binding motif; log Ka 5.7-6.1 over all DNAs
[6] = tested on: PDGF-A (DNA, G4) GGAGGCGGGGGGGGGGGGGCGGGGGCGGGGGCGGGGGAGGGGCGCGGC; assay: fluorescence emission titration; conditions: 100 mM K+ (DNA annealed in 25 mM K+); 10 mM lithium cacodylate pH 7.3, 2 μM compound; per binding motif; log Ka 5.7-6.1 over all DNAs

binding [1]	binding [2]	binding [3]	binding [4]	binding [5]	Ka [6] [M⁻¹]	Structure (SMILES)
yes	–	–	–	–	–	NCCOc1cc(C(=O)Nc2cc(OCCN)c3ccccc3n2)nc(C(=O)Nc2cc(OCCN)c3ccccc3n2)c1
–	yes	yes	yes	yes	761000	c1cc2oc3cccc4c3[c+]3c2c(c1)n(CCN1CCOCC1)c1cccc(c13)n4CCN1CCOCC1
